From paper PMC9954146, “Anti-Leukaemic Activity of Rilpivirine Is Mediated by Aurora A Kinase Inhibition” (Cancers, 2023)
Read-outs that look alike come from different tables or passages of the source.

Columns and labels:
HL-60 cells [1] = test: Resazurin cell viability assay; type: cell-based; settings: Homo sapiens, read-out: GI50
Method: Cell viability was determined by a resazurin-based assay as described previously. […] At the end of the treatment period, 20 µL of resazurin (0.1 mg/mL in PBS) was added per well and incubated for further 4 h.

[2] = Pharmacokinetic analysis in mice; type: in vivo, mouse
Method: A pharmacokinetic study was performed as described previously. The pharmacokinetics of rilpivirine was determined after administration of single 50 mg/kg oral (PO) and 2 mg/kg intravenous (IV) doses to male BALB/c hairy mice (n = 6 per route). Briefly, three blood samples were collected from both cheeks (left and right) and the heart of each mouse. A validated liquid chromatography-mass spectrometry/mass spectrometry (LC-MS/MS) technique was used to measure the drug concentrations in the plasma. Pharmacokinetic parameters were estimated using compartmental models (Phoenix, Certara, NJ, USA) and analysis was performed with WinNonlin 6.4 software (Princeton, NJ, USA).

K-562 cells [3] = test: Apoptosis, annexin V/PI double staining; type: cell-based, human; settings: 48 h
Method: (§1) The cellular apoptosis was detected using annexin-V/PI double staining by following a method described previously. Briefly, cells were added in 6-well plates containing 3 mL of medium each well at 8 × 10^4 cells/well and incubated at 37 °C, 5% CO2. After overnight incubation, the test compounds were added to the cells and again incubated for desired time points. Then, the cells were collected in FACS tubes, washed with PBS and incubated with annexin V and PI solution for 15 min in the dark at room temperature. The apoptotic cell death was measured within 1 h using the same instrument and data processing software described for cell cycle analysis.

U-937 cells [4] = test: Apoptosis, annexin V/PI double staining; type: cell-based, human; settings: 48 h
Method: as §1

MV4-11 cells = test: Apoptosis, annexin V/PI double staining; type: cell-based, human; settings: 10 or 20 μM, 48 h; FLT3-ITD mutation
Method: as §1

NB4 cells [5] = test: Apoptosis, annexin V/PI double staining; type: cell-based, human; settings: 48 h
Method: as §1

HL-60 cells [6] = test: Apoptosis, annexin V/PI double staining; type: cell-based, human; settings: 48 h
Method: as §1

[7] = Tolerated dose in non-tumour-bearing mice; type: in vivo; settings: up to an oral dose of 300 mg/kg, once daily for seven days; non-tumour-bearing female BALB/c nude mice
Method: Animal experiments were performed as reported previously. All animal experiments were conducted following the institutional ethical principles of animal care and approved by the University of South Australia Animal Ethics Committee.

[8] = test system: Aurora A kinase signalling pathway proteins in HL-60 and NB4 cells; test: Western blotting, concentration series; type: cell-based, human; settings: 24 h
Method: Western blotting was performed following a method described previously. Briefly, 8 × 10^5 to 1 × 10^6 cells were seeded in petri dishes with 8 to 10 mL of culture medium and incubated overnight at 37 °C, 5% CO2. Then, the cells were treated with the test compounds and further incubated for the specified time point. Cells were then lysed using a lysis buffer containing protease inhibitors, and proteins were extracted by centrifugation. Protein concentrations were determined by using a Bio-Rad DC^TM protein assay kit (Bio-Rad Laboratories, Hercules, CA, USA). A total of 20–30 μg of proteins was loaded onto each well of 4–20% polyacrylamide gels for electrophoresis. Once electrophoresis was completed, gels were placed on pre-soaked polyvinylidene difluoride membranes and blocked with 10% skimmed milk in 1 × Tris-buffered saline and Tween (TBST). Then, the blots were incubated with primary antibodies, followed by washing with TBST for 4 × 20 min. After this, the blots were incubated with the appropriate horseradish peroxidase (HRP)-conjugated secondary antibody, followed by washing again with TBST for 4 × 20 min. The protein bands were then detected with either ECL prime (Amersham^TM ECL^TM prime Western blotting detection reagent) or ECL select (Amersham^TM ECL^TM select Western blotting detection reagent) depending on the abundance of the protein of interest. The blots were imaged using the Bio-Rad ChemiDoc^TM MP imaging system (Bio-Rad Laboratories, Hercules, CA, USA). All the primary and secondary antibodies used in this study were purchased from Cell Signaling Technology (Danvers, MA, USA).

K-562 cells [9] = test: Resazurin cell viability assay; type: cell-based, human; settings: Homo sapiens
Method: (§2) Cell viability was determined by a resazurin-based assay as described previously. Briefly, 5 × 10^3 cells/well were seeded into 96-well plates (Corning Inc., Corning, NY, USA) in 180 µL of RPMI 1640 medium and incubated overnight at 37 °C with 5% CO2. Next day, cells were treated with rilpivirine after serially diluted (1:2 dilution for final concentrations ranging from 0.625 µM to 40 µM) or DMSO (0.1%) for specified time periods (24, 48, or 72 h). At the end of the treatment period, 20 µL of resazurin (0.1 mg/mL in PBS) was added per well and incubated for further 4 h. Fluorescence intensities were recorded at 570 nm (excitation)/585 nm (emission) using an EnVision® multilabel plate reader (PerkinElmer, MA, USA). Drug concentrations required for cell viability reduction by 50% (GI50) compared with untreated (DMSO vehicle-treated only) control were determined by a non-linear regression model using GraphPad Prism software version 7.02 (La Jolla, CA, USA).

U-937 cells [10] = test: Resazurin cell viability assay; type: cell-based; settings: Homo sapiens
Method: as §2

NB4 cells [11] = test: Resazurin cell viability assay; type: cell-based; settings: Homo sapiens
Method: as §2

[12] = male, BALB/c hairy, mouse, plasma, IV, 2 mg/kg single dose
[13] = male, BALB/c hairy, mouse, plasma, PO, 50 mg/kg single dose

Cc1cc(/C=C/C#N)cc(C)c1Nc1ccnc(Nc2ccc(C#N)cc2)n1 [rilpivirine, (E)-4-((4-((4-(2-cyanoethenyl)-2,6-dimethylphenyl)amino)pyrimidin-2-yl)amino)benzonitrile]
GI50 (HL-60 cells [1]; HL-60, 24 h): 9.16 ± 1.05 µM
GI50 (HL-60 cells [1]; HL-60, 48 h): 6.26 ± 0.15 µM
GI50 (HL-60 cells [1]; HL-60, 72 h): 4.12 ± 0.18 µM
Cmax ([2]; IV, 2 mg/kg single dose, 2 mg/kg): > 20 µM
Cmax ([2]; PO, 50 mg/kg single dose, 50 mg/kg): > 20 µM
AUC(0-t) [2, 12]: 20 µM·h
Tmax [2, 12]: 0.033 h
half-life [2, 12]: 1.3 h
AUC(0-t) [2, 13]: 247 µM·h
Tmax [2, 13]: 1.5 h
bioavailability [2, 13]: 49.1%
half-life [2, 13]: 4.91 h
Cmax ([2]; male, BALB/c hairy, mouse, plasma, iv, 2 mg/kg, 2 mg/kg single dose): 22.4 µM
Cmax ([2]; male, BALB/c hairy, mouse, plasma, po, 50 mg/kg, 50 mg/kg single dose): 33.3 µM
apoptotic cells (early and late apoptosis) (K-562 cells [3]; 5 µM): 15.06%
apoptotic cells (early and late apoptosis) (K-562 cells [3]; 10 µM): 31.88%
apoptotic cells (early and late apoptosis) (K-562 cells [3]; 20 µM): 38.21%
apoptotic cells (early and late apoptosis) (U-937 cells [4]; 5 µM): 20.68%
apoptotic cells (early and late apoptosis) (U-937 cells [4]; 10 µM): 29.58%
apoptotic cells (early and late apoptosis) (U-937 cells [4]; 20 µM): 39.47%
apoptosis induction (MV4-11 cells): induced significant apoptosis
apoptotic cells (early and late apoptosis) (NB4 cells [5]; 5 µM): 31.62%
apoptotic cells (early and late apoptosis) (NB4 cells [5]; 10 µM): 87.04%
apoptotic cells (early and late apoptosis) (NB4 cells [5]; 20 µM): 98.9%
apoptotic cells (early and late apoptosis) (HL-60 cells [6]; 5 µM): 6.94%
apoptotic cells (early and late apoptosis) (HL-60 cells [6]; 10 µM): 48.73%
apoptotic cells (early and late apoptosis) (HL-60 cells [6]; 20 µM): 67.32%
body weight and clinical signs of toxicity [7]: did not cause any significant changes in body weight (i.e., >15%) or show overt clinical signs of toxicity
CDK1 level [8]: reduced
Cdc25C (Ser198) phosphorylation [8]: inhibited
PARP and caspase 3 cleavage [8]: increased
Plk1 (Thr210) phosphorylation [8]: inhibited
anti-apoptotic protein Mcl-1 [8]: down-regulation
cyclin B1 level [8]: reduced
phospho-Histone H3 (Ser10) [8]: induced
phosphorylation of CENP (Ser7) [8]: inhibited
total Aurora A [8]: without affecting
auto-phosphorylation of Aurora A at Thr288 ([8]; concentration-dependent): suppressed
GI50 (K-562 cells [9]; K562, 24 h): 12.4 ± 2.16 µM
GI50 (K-562 cells [9]; K562, 48 h): 8.43 ± 0.37 µM
GI50 (K-562 cells [9]; K562, 72 h): 7.36 ± 0.24 µM
GI50 (U-937 cells [10]; U-937, 24 h): 12.1 ± 2.97 µM
GI50 (U-937 cells [10]; U-937, 48 h): 5.77 ± 1 µM
GI50 (U-937 cells [10]; U-937, 72 h): 4.79 ± 0.17 µM
GI50 (NB4 cells [11]; NB-4, 24 h): 8.94 ± 1.02 µM
GI50 (NB4 cells [11]; NB-4, 48 h): 6.54 ± 0.83 µM
GI50 (NB4 cells [11]; NB-4, 72 h): 4.6 ± 0.35 µM
